Measurements reported in US20120219543A1, “METHODS AND PHARMACEUTICAL COMPOSITIONS FOR THE TREATMENT OF DISORDERS OF GLUCOSE HOMEOSTASIS” (priority 2009, published 2012).
“Also recorded” adds a separate entry of the source.

Key:
[1] = system: E13.5 Rat embryonic pancreases; experiment: Organ culture of E13.5 rat embryonic pancreases: morphology, immunohistochemistry and surface/cell quantification; assay type: cell-based
Text: (§1) Pregnant Wistar rats were purchased from the Janvier Breeding centre (CERJ, LeGenet, France). Cftr-knockout (Cftr−/−) and wild-type (Cftr+/+) embryos were obtained from the progeny of heterozygous-heterozygous for the S489X mutation (Snouwaert et al. 1992) matings (CDTA, Orléans, France). The first day postcoitum was taken as embryonic day (E)0.5. Pregnant rats were killed with CO2 asphyxiation and pregnant mice by cervical dislocation according to guidelines issued by the French Animal Care Committee. Dorsal pancreatic buds from E13.5 rat and E12.5 mice embryos were dissected as described previously (Miralles et al. 1998). Briefly, the stomach, pancreas and a small portion of the intestine were dissected together, and then the pancreas primordium was isolated.
(§2) Dorsal pancreatic rudiments were cultured on 0.45 μm filters (Millipore) at the air-medium interface in a 35 mm sterile Petri dishes containing 2 ml RPMI-1640 medium (Invitrogen) supplemented with 100 U/ml penicillin, 100 μg/ml streptomycin, 10 mmol/L HEPES, 2 mmol/L L-glutamine, 1× non-essential aminoacids (Invitrogen) and 10% heat-inactivated fetal calf serum (HyClone, Logan, Utah, USA). Glibenclamide (MP Biomedical), and Glycine hydrazide (GlyH-101)(Calbiochem), used at the indicated concentrations, were first dissolved as concentrated solutions in dimethylsulfoxide DMSO (Sigma), the final concentration of DMSO in the culture medium was less than 0.5% (vol/vol). Glibenclamide and GlyH-101 were added to the media daily. The cultures were incubated at 37° C. in a humidified atmosphere composed of 95% air and 5% CO2. At the end of the culture period, the pancreases were photographied, and fixed as described below or harvested for RNA extraction.
The pancreatic rudiments were fixed in 10% formalin, pre-embedded in agarose gel (4% of type VII low-gelling-temperature agarose [Sigma] in H2O) and embedded in paraffin. Immunohistochemistry was performed on 4-μm paraffin sections as previously described) (Duvillie et al. 2006). The primary antibodies were mouse anti insulin (1/2000; Sigma), rabbit anti-glucagon (1/1000; Diasorin), rabbit anti-amylase (1/300; Sigma), rabbit anti-carboxypeptidase A (CPA) (1/600; Biogenesis, Kidlington, Oxford, UK), rabbit anti-PDX1 (1/1000) (Duvillie et al. 2006) mouse anti-BrdU (1/2; Amersham Biosciences, Buckingham, UK), rabbit anti-Proprotein Convertase Subtilisin/Kexin 1/3 (PCSK1/3), rabbit anti-Ngn3 (1/100, (Guillemain et al. 2007) The fluorescent secondary antibodies were fluorescein anti-rabbit antibody (1/200; Jackson Immunoresearch, Baltimore, Md., USA), fluorescein goat anti-rabbit Alexa Fluor 488 (1/400; Invitrogen) and Texas red anti-mouse antibody (1/200; Jackson). Nuclei were stained in blue with Hoechst 33342 (0.3 μg/ml; Invitrogen). Ngn3 detection was performed as previously described (Guillemain et al. 2007) using the Vectastain elite ABC kit (Vector laboratories).
(§3) To quantify the surface area of insulin, glucagon, PCSK1/3, CPA and amylase-expressing cells, all sections of each pancreatic rudiment were digitized. Alternate sections were examined to avoid counting the same cell twice. The surface of insulin, glucagon, PCSK1/3, CPA, amylase and Hoechst stainings were quantified using Iplab (Scanalytics). The stained areas were summed to obtain the total surface area per rudiment in mm^2. To measure proliferation of the early progenitors expressing PDX1, we counted the frequency of BrdU positive progenitors expressing PDX1 among 3000 early progenitors expressing PDX1 per rudiment. To quantify the absolute number of NGN3-expressing cells, pancreatic rudiments were sectioned and all sections were stained with an anti-NGN3 antibody. Positive cells were counted on all sections of each pancreatic rudiment. A minimum of three rudiments was analyzed per condition.

[2] = system: mRNA transcripts (insulin, MafA, ZnT-8, Ngn3, NeuroD1, Pou3F4, somatostatin) in E13.5 Rat pancreases; experiment: Real-time PCR of mRNA transcripts in cultured E13.5 rat pancreases; assay type: cell-based; conditions: for insulin mRNA level increase / ZnT-8 and MafA expression: Glib 5D
Text: as §1, §2
Total RNA was isolated from pools of at least three pancreases using the Qiagen RNeasy Microkit (Qiagen, Courtaboeuf, France) and reverse transcribed using Superscript reagents (Invitrogen). Real-time PCR was performed with the 7300 Fast real-time PCR system (Applied Biosystem) using either Taqman universal PCR master mix or SYBR green PCR master mix (Applied Bio system) with primers and labelled probes specific for each gene. Peptidylpropyl isomerase A/Cyclophilin A was used as endogenous control and E16.5 pancreas cDNA as calibrator sample. The data were analyzed by comparative cycle threshold method (Livak and Schmittgen 2001) and presented as the fold change in gene expression. At least three pools of explants were analysed by condition.

[3] = system: E13.5 Rat embryonic pancreases (PDX-1+ progenitors, insulin-expressing cells); experiment: BrdU incorporation (proliferation) in cultured E13.5 rat pancreases; assay type: cell-based; conditions: 10 μM GlyH-101, D5, BrdU during last hour
Experimental: as §2, with “Glibenclamide and GlyH-101 were added to the media daily. The cultures were incubated at 37° C. in a humidified atmosphere composed of 95% air and 5% CO2. At the end of the culture period, the pancreases were photographied, and fixed as described below or harvested for RNA extraction.” left out
as §3, with “Alternate sections were examined to avoid counting the same cell twice.” left out, “The stained areas were summed to obtain the total surface area per rudiment in mm^2.” left out, “A minimum of three rudiments was analyzed per condition.” left out

[4] = system: E12.5 pancreases from WT (CFTR+/+) mice; experiment: Organ culture of E12.5 pancreases from WT (Cftr+/+) mice, insulin-positive cell area; assay type: cell-based; conditions: 10 μM GlyH-101, 6 days of culture
Experimental: (§4) FIG. 1: Effects of GlyH-H101 on endocrine cell development. Quantification by real-time PCR of insulin (A) and MafA (B) mRNA transcripts in E 13.5 Rat pancreases before (D0) and after 1, 3, 5 and 7 days of culture (D1, D3, D5 and D7 respectively) with or without 10 μM GlyH-101. Each data point represents the mean±sem of at least four independent experiments ***, p<0.001. (C) Immunohistological analysis of E13.5 Rat pancreases cultured 5 days in the presence or in absence of 10 μM GlyH-101. Insulin and amylase staining were respectively in red and green. Nuclei were stained in blue with Hoechst. Scale bar: 50 μm (D). β cell differentiation was evaluated by quantification of the absolute surface area occupied by insulin staining in E 13.5 Rat pancreases after 5 days of culture in presence or in absence of 10 μM GlyH-101. Values are means±sem of at least three independent experiments *, p<0.05; (E) Quantification by real-time PCR of Ngn3 transcripts in E13.5 Rat pancreases before (D0) and after 1, 3, 5 and 7 days of culture (D0, D1, D3, D5 and D7 respectively) with or without 10 μM GlyH-101. […] (G) Quantification of the number of NGN3 positive-cells in E13.5 Rat pancreases cultured for 5 days in presence or in absence of 10 μM GlyH-101. […]
(§5) To quantify the surface area of insulin, glucagon, PCSK1/3, CPA and amylase-expressing cells, all sections of each pancreatic rudiment were digitized. […]

[5] = system: E12.5 pancreases from knockout (CFTR-/-) mice; experiment: Organ culture of E12.5 pancreases from Cftr knockout (Cftr-/-) mice, insulin-positive cell area; assay type: cell-based; conditions: 10 μM GlyH-101, 6 days of culture
Experimental: as §4, §5

[6] = system: beta cell mass of embryos of pregnant mice; experiment: In vivo administration to pregnant mice, insulin staining surface of embryonic pancreas; conditions: E12.5 pregnant mice, 10 mg/kg/day for 5 days, intraperitoneal, embryos harvested at E18.5
Experimental: To evaluate its effects in vivo, GlyH 101 was administrated to a E12.5 pregnant mice for 5 days at 10 mg/kg/day (according to Yang et al. 2008) in a saline DMSO solution ([…]) by intraperitoneal injection two times a day. The embryos were harvested at E18.5 and the pancreas fixed for histological immunostaining. The surface of insulin staining was quantified and normalized to the whole pancreatic tissue.

[7] = system: human liver cell line HepG2; conditions: HepG2 cultured with 100 μM glibenclamide; cited from earlier work
CFTR channel = CFTR channel (Homo sapiens, UniProt P13569); conditions: open-channel block mechanism; cited from earlier work
[8] = 100 μM, 7 days of culture, vs absence

Sequence of CFTR channel (P13569 whole entry): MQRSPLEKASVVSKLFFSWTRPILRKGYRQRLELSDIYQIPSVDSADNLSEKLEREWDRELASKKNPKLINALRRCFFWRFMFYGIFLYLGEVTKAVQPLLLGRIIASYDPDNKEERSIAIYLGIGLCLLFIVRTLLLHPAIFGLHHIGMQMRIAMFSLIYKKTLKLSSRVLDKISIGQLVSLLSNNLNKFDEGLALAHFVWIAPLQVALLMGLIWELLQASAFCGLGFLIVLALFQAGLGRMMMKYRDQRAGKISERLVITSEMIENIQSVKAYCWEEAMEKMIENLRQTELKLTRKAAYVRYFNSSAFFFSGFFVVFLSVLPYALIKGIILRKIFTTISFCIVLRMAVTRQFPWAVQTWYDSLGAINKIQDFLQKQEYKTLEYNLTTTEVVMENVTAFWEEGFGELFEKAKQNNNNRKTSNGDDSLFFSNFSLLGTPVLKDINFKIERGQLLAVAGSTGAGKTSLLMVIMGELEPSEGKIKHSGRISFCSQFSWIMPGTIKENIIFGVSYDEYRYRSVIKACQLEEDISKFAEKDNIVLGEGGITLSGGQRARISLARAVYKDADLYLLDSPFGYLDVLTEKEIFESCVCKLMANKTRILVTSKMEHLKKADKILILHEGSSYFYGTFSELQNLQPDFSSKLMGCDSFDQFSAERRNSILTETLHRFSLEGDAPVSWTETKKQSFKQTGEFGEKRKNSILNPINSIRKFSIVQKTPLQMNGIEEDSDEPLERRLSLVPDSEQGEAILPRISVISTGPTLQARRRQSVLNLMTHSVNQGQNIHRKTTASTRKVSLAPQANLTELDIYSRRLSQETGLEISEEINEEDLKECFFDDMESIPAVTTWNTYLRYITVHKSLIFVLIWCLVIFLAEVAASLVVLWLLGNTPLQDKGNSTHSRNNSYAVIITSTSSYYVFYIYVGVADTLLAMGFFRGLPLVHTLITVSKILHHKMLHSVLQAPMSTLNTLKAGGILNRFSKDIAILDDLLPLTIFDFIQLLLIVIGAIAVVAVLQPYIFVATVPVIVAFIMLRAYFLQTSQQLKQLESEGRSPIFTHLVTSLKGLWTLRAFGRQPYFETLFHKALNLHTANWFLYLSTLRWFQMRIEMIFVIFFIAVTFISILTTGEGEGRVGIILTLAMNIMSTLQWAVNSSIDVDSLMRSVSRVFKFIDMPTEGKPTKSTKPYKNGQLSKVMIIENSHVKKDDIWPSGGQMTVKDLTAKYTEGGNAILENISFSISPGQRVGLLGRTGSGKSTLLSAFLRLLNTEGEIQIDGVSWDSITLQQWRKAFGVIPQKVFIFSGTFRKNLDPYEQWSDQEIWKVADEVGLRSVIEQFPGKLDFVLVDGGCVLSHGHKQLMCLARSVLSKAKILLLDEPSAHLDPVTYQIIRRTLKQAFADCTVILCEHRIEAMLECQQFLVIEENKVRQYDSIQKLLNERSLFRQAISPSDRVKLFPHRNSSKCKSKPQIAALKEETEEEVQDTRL

**Q.** Which exocrine differentiation ([1]; 10 μM GlyH-101) does the source give for O=C(CNc1ccc2ccccc2c1)NN=Cc1cc(Br)c(O)c(Br)c1O [GlyH-101, N-2-napthalenyl-[(3,5-dibromo-2,4-dihydroxyphenyl)methylene]glycine hvdrazide] here?
**A.** did not observe any effects

**Q.** What about the “area occupied by insulin-positive cells” value ([1]; 10 μM GlyH-101, 5 days of culture) of the same compound?
**A.** dramatic increase

**Q.** And the “pool/number of Ngn3+ pancreatic endocrine progenitor cells” value ([1]; 10 μM GlyH-101, D5)?
**A.** increased number; also recorded: amplified and maintained

**Q.** What about the “increase of MafA mRNA transcripts” value ([2]; 10 μM GlyH-101, D3) of the same compound?
**A.** more than twofold

**Q.** What about the “increase of insulin mRNA transcripts” value ([2]; 10 μM GlyH-101, D3) of the same compound?
**A.** more than twofold

**Q.** What about the “increase in Ngn3 expression (real-time PCR)” value ([2]; 10 μM GlyH-101, D5) of the same compound?
**A.** 8 fold

**Q.** What about the insulin expression ([2]; 10 μM GlyH-101, after 5 and 7 days of culture) of the same compound?
**A.** sixfold

**Q.** And the “Ngn3 expression (real-time PCR)” value ([2]; 10 μM GlyH-101, from D1)?
**A.** strong increase

**Q.** What about the “proliferative rate of insulin-expressing cells (BrdU)” value [3] of the same compound?
**A.** No differences

**Q.** And the “insulin+ cell area” value [4]?
**A.** increase

**Q.** What about the “insulin+ cell area” value [5] of the same compound?
**A.** unable to modify

**Q.** And the “beta cell mass (insulin staining surface normalized to whole pancreatic tissue)” value [6]?
**A.** increased

**Q.** For COc1ccc(Cl)cc1C(=O)NCCc1ccc(S(=O)(=O)NC(=O)NC2CCCCC2)cc1 [glibenclamide], which pancreatic growth ([1]; 10 nM, 100 nM, 1, 10 or 100 μM glibenclamide vs control, 7 days of culture) is on record?
**A.** similar

**Q.** What about the “number of NGN3+ cells (immunohistochemistry)” value ([1]; 100 μM, 5 days of culture, vs absence) of the same compound?
**A.** threefold

**Q.** What about the “increase of the number of glucagon-expressing cells” value ([1]; 100 μM, 7 days of culture) of the same compound?
**A.** 3.5 fold

**Q.** And the “decrease of surface area occupied by the insulin-cell population” value [1, 8]?
**A.** 70%

**Q.** And the “surface area occupied by amylase- and carboxypeptidaseA-positive cells” value [1, 8]?
**A.** No differences

**Q.** What about the “surface area occupied by PCSK1/3 staining in PDX-1+ cells” value ([1]; 100 μM, 7 days of culture, vs without) of the same compound?
**A.** similar

**Q.** And the “exocrine (acinar and ductal) development” value ([1]; 100 μM, 7 days, amylase, carboxypeptidaseA, SPP1 and CFTR markers)?
**A.** did not to modify

**Q.** What about the “apoptosis (Hoechst staining of the nuclei)” value ([1]; 10 and 100 μM, 7 days of culture, vs without) of the same compound?
**A.** no difference

**Q.** What about the “overall size of pancreases (quantitative analysis)” value ([1]; 10 or 100 μM, 7 days of culture) of the same compound?
**A.** lack of glibenclamide toxicity

**Q.** And the “insulin-staining area (insulin-positive cells)” value ([1]; Glib 5D-treated pancreas)?
**A.** significant increase

**Q.** And the insulin-expressing cells observed ([1]; Glib-5D pancreases at D9, D11 or D14)?
**A.** A large number

**Q.** What about the insulin-containing cells detected ([1]; glibenclamide present throughout 9, 11 or 14 days of culture) of the same compound?
**A.** less

**Q.** What about the pancreas development ([1]; up to 1 micromolar) of the same compound?
**A.** did not affect

**Q.** And the NeuroD1 expression ([2]; 100 μM, D5)?
**A.** significantly increased; also recorded: twofold

**Q.** What about the NeuroD1 expression ([2]; 100 μM, D7) of the same compound?
**A.** enhanced

**Q.** And the “Pou3F4/Brn4 mRNA level” value ([2]; 100 μM, D7)?
**A.** significant increase

**Q.** What about the “NeuroD1 mRNA levels” value ([2]; 100 μM, after 1 and 3 days of culture, vs absence) of the same compound?
**A.** similar

**Q.** And the Ngn3 expression increase ([2]; 100 μM, after 5 days of culture, p<0.001)?
**A.** sevenfold; also recorded: seven

**Q.** And the “increase in somatostatin expression” value ([2]; 100 μM, after 7 days of culture)?
**A.** twofold

**Q.** And the “Ngn3 mRNA level” value ([2]; 100 μM, after 7 days of culture, p<0.001)?
**A.** dramatically higher; also recorded: threefold

**Q.** What about the “insulin expression (real-time PCR)” value ([2]; 100 μM, as early as D3) of the same compound?
**A.** strongly reduced

**Q.** And the Ngn3 expression ([2]; 100 μM, day 1 and 3, vs absence)?
**A.** similar

**Q.** What about the “expression of β-cell markers ZnT-8 and MafA” value ([2]; 100 μM, over the 7 days of culture) of the same compound?
**A.** did not affect

**Q.** And the “reversal of low insulin content and reduced insulin gene transcription” value ([2]; 2 days after glibenclamide removal)?
**A.** completely reverted

**Q.** What about the “insulin mRNA level increase” value ([2]; D9, vs without) of the same compound?
**A.** threefold

**Q.** And the “insulin mRNA level increase” value ([2]; D11, vs without)?
**A.** twofold

**Q.** And the “insulin mRNA level increase” value ([2]; D14, vs without)?
**A.** threefold

**Q.** And the “ZnT-8 and MafA expression” value ([2]; after 9, 11 and 14 days of culture, p<0.01)?
**A.** dramatic increase

**Q.** What about the “ZnT-8 and MafA expression” value ([2]; after 7 days of culture) of the same compound?
**A.** similar

**Q.** What about the “insulin mRNA level” value ([2]; glibenclamide only first 5 days of culture (Glib 5D), D7, vs without) of the same compound?
**A.** identical

**Q.** What about the toxicity and apoptosis [7] of the same compound?
**A.** no toxicity nor apoptosis

**Q.** What about the CFTR channel inhibition (CFTR channel) of the same compound?
**A.** inhibits CFTR channel in a dose-dependant manner
